From ChEMBL document CHEMBL3576787, “Alkaloidal metabolites from a marine-derived Aspergillus sp. fungus” (J Nat Prod, 2015)
Converted amounts (≈) assume the structure as drawn. The source made the active and inactive calls. No cut-off for these calls is given here.

Columns and labels:
Salmonella typhimurium = assay: Antimicrobial activity against Salmonella typhimurium incubated for 24 hrs; format: functional, Salmonella enterica subsp. enterica serovar Typhimurium; settings: Salmonella enterica
Micrococcus luteus = assay: Antimicrobial activity against Micrococcus luteus incubated for 24 hrs; format: functional
K562 = assay: Cytotoxicity against human K562 cells; format: functional, cell-based
Proteus hauseri = assay: Antimicrobial activity against Proteus hauseri incubated for 24 hrs; format: functional
Staphylococcus aureus = assay: Antimicrobial activity against Staphylococcus aureus incubated for 24 hrs; format: functional
Escherichia coli = assay: Antimicrobial activity against Escherichia coli incubated for 24 hrs; format: functional
[1] = target: Isocitrate lyase (Candida albicans) (UniProt Q9P8Q7); assay: Inhibition of Candida albicans isocitrate lyase assessed as reduction in glyoxylate phenylhydrazone formation using phenylhydrazine and isocitrate incubated for 30 mins by spectrophotometry
[2] = target: Sortase A (Staphylococcus aureus) (UniProt Q2FV99); assay: Inhibition of sortase A (Staphylococcus aureus)
A549 = assay: Cytotoxicity against human A549 cells; format: functional, cell-based
[3] = Inhibition of porcine cerebral cortex Na+/K+ ATPase using 3-O-methylfluorescein phosphate and […] incubated for 30 mins by spectrophotometry; format: tissue-based, Sus scrofa

Sequence of Isocitrate lyase (Candida albicans) (Q9P8Q7 whole entry): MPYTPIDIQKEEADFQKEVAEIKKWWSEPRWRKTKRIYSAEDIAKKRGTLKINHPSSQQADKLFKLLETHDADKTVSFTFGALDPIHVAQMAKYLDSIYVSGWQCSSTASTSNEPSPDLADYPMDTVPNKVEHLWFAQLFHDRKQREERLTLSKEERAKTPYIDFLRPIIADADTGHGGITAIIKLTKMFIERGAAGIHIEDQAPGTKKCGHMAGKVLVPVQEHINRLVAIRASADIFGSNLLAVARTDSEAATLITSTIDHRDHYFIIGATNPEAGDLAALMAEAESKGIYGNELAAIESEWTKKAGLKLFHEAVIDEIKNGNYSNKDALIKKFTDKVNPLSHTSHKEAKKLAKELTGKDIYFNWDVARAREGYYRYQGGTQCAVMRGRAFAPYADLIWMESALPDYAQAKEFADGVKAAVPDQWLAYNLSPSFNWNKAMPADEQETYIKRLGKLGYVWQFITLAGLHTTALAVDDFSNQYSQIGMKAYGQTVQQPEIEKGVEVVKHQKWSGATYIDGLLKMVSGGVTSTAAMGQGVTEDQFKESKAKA

SMILES | MIC (Salmonella typhimurium) | MIC (Micrococcus luteus) | IC50 (K562) | MIC (Proteus hauseri) | MIC (Staphylococcus aureus) | MIC (Escherichia coli) | inhibition [1] | inhibition [2] | IC50 (A549) | IC50 [3]
CC[C@H]1C(=O)N2c3ccccc3[C@]3(O)C[C@@H](n4cnc5ccccc5c4=O)C(=O)N1[C@H]23 | > 100 µg/mL | > 100 µg/mL | 25.9 µM | > 100 µg/mL | > 100 µg/mL | > 100 µg/mL | inactive | inactive | 19.3 µM | 19.5 µM
C[C@H]1C(=O)N2c3ccccc3[C@]3(O)C[C@@H](n4cnc5ccccc5c4=O)C(=O)N1[C@H]23 | > 100 µg/mL | > 100 µg/mL | 50.4 µM | > 100 µg/mL | > 100 µg/mL | > 100 µg/mL | inactive | inactive | 21.9 µM | 78.1 µM
COc1cccc2c1C(=O)c1c(O)c3c(c(O)c1C2=O)C[C@@](O)(C(=O)CO)C[C@@H]3O[C@H]1C[C@H](N)[C@H](O)[C@H](C)O1 [DOXORUBICIN] | – | – | 1.46 µM | – | – | – | – | – | 1.83 µM | –
CC(C)[C@@H]1N[C@@H]2N(C1=O)c1ccccc1[C@]2(O)C[C@@H]1C(=O)N[C@@H](C)c2nc3ccccc3c(=O)n21 | > 100 µg/mL | > 100 µg/mL | 13.8 µM | > 100 µg/mL | > 100 µg/mL | > 100 µg/mL | inactive | inactive | 15.8 µM | 34.3 µM
C[C@@H]1O[C@@H](O[C@H]2C[C@@H](O)[C@]3(CO)[C@H]4[C@H](O)C[C@]5(C)[C@@H](C6=CC(=O)OC6)CC[C@]5(O)[C@@H]4CC[C@]3(O)C2)[C@H](O)[C@H](O)[C@H]1O [OUABAIN] | – | – | – | – | – | – | – | – | – | 6.43 µM
CC(C)[C@@H]1N[C@@H]2N(C1=O)c1ccccc1[C@]21C[C@@H]2C(=O)N[C@](C)(O1)c1nc3ccccc3c(=O)n12 [FUMIQUINAZOLINE L] | 100 µg/mL (≈ 212 µM) | 100 µg/mL (≈ 212 µM) | > 100 µM | > 100 µg/mL | > 100 µg/mL | > 100 µg/mL | inactive | inactive | > 100 µM | 20.2 µM
CC1(C)S[C@@H]2[C@H](NC(=O)[C@H](N)c3ccccc3)C(=O)N2[C@H]1C(=O)O [AMPICILLIN] | 0.78 µg/mL (≈ 2.23 µM) | 0.2 µg/mL (≈ 0.572 µM) | – | 0.39 µg/mL (≈ 1.12 µM) | 0.78 µg/mL (≈ 2.23 µM) | 3.13 µg/mL (≈ 8.96 µM) | – | – | – | –
CC(C)[C@H]1C(=O)N2c3ccccc3[C@]3(O)C[C@H](n4cnc5ccccc5c4=O)C(=O)N1[C@H]23 | 100 µg/mL (≈ 232 µM) | > 100 µg/mL | 17.8 µM | 100 µg/mL (≈ 232 µM) | 100 µg/mL (≈ 232 µM) | > 100 µg/mL | inactive | inactive | 29.2 µM | 56.8 µM
C[C@@H]1NC(=O)[C@@H](Cc2c[nH]c3ccccc23)n2c1nc1ccccc1c2=O [FUMIQUINAZOLINE F] | > 100 µg/mL | > 100 µg/mL | > 100 µM | 100 µg/mL (≈ 279 µM) | > 100 µg/mL | > 100 µg/mL | inactive | inactive | > 100 µM | 17.4 µM
CC(C)[C@H]1C(=O)N2c3ccccc3[C@]3(O)C[C@@H](n4cnc5ccccc5c4=O)C(=O)N1[C@H]23 | > 100 µg/mL | > 100 µg/mL | 14.4 µM | > 100 µg/mL | > 100 µg/mL | > 100 µg/mL | inactive | inactive | 18.6 µM | 37.9 µM
